Reference: patent US20180146698A1, “FORMULA FEED FOR POULTRY” (JXTG Nippon Oil & Energy Corporation, priority 2015, published 2018)
One block for each compound: values may come before it.

Tests used:
chickens [1] = assay: Chicken egg color enhancement test 2: yolk color fan value, feeds with corn contents of 30% to 50%; assay type: in vivo; details: for color fan value compared with t-capsanthin: corn contents of 30% and 50%
Description: The effects of the present invention were confirmed using feeds with corn contents of 30% to 50% in the same manner as in Example 1. Formula feeds were prepared by adding astaxanthin or t-capsanthin to feeds with the compositions listed in Table 5 so as to result in a final concentration of 1 to 16 ppm. In this Example, the feeds were the same except the corn content and the content of brown rice, which is added depending on a decrease in the corn content, and corn-derived corn gluten meal was not mixed therein. FIGS. 8a and 8b show the relationship between the astaxanthin and t-capsanthin concentrations in the feeds with corn contents of 30% and 50% and the yolk color fan values for the obtained eggs. Based on the results of FIGS. 8a and 8b, the concentrations of astaxanthin and t-capsanthin to be added to a feed in order to achieve a desired color fan value of 10 to 15 were calculated for feeds with corn contents of 30% and 50% (Table 6).

chickens [2] = assay: Yolk color measurement using colorimeter 2 (eggs of Example 8); assay type: in vivo; details: 2 ppm or 4 ppm; corn contents of 0% to 30%
Description: The yolk color of eggs obtained in Example 8 was measured using a colorimeter (CM-700d, Konica Minolta Inc.). FIGS. 14a to 14c show the measurement results of the L*, a*, and b* values, respectively.

Julia Light hens [3] = assay: Chicken egg color enhancement test 1: yolk color fan value, low- and standard-corn-content feed; assay type: in vivo, chickens; details: for change of color fan value, low-corn-content vs standard-corn-content feed / CF value: colorant added at 4 ppm
Description: A preparation of dry cells of a Paracoccus bacterium (with an astaxanthin content of 2%) and a paprika colorant preparation (with a t-capsanthin content of 0.25%) were used as coloring agents for evaluation. Cells of a nitrosoguanidine mutant strain obtained from the Paracoccus carotinifaciens E-396 strain (FERM BP-4283) were used as carotenoid-producing Paracoccus bacterial cells for a preparation of dry cells of a Paracoccus bacterium. The preparation was cultured in a seed flask medium and then cultured in a main culture medium at 28° C. under aerobic conditions until the bacterial cell concentration reached the maximum level. Next, the cultured cells were collected and recovered using a centrifuge. The recovered Paracoccus bacterial cells were dried using a double drum dryer at a drum rotation speed of 3.5 rpm and a drum temperature of 140° C. The average particle size (volume particle size D50) of the obtained power was approximately […]. The powder was further finely powderized (pulverized) using a jet mill (Seishin Enterprise Co., Ltd.) so that the average particle size (D50) became 9 μm. The obtained product was used as a preparation of dry cells of a Paracoccus bacterium. As a paprika colorant preparation, Color Up (a product with a total xanthophyll concentration of 5 g/kg, Kohkin Chemical Co., Ltd.) was used. The above preparations were added to a low-corn-content feed and a standard-corn-content feed listed in Table 1, thereby preparing formula feeds each containing astaxanthin or t-capsanthin at a final concentration of 1, 2, 4, or 8 ppm. Table 2 lists measured concentrations of astaxanthin and t-capsanthin contained in the actually produced formula feeds. Julia Light hens were used for tests. Ten chickens were provided for each test plot. The acclimatization period was set to 2 weeks. Eggs collected in Week 2, during which the color fan value became stabilized, or later, were evaluated. Eggs were collected from each test plot. The color fan values of 10 chicken eggs were measured using Egg Multitester EMT-7300 (JA Z-Tamago Co., Ltd.) for each test plot. The yolk carotenoid concentration was determined for 3 eggs for each test plot. FIGS. 1 and 2 show the relationship between the concentrations of astaxanthin and t-capsanthin in both feeds and the yolk color fan values of the obtained eggs. Based on the results of FIGS. 1 and 2, the concentrations of astaxanthin and t-capsanthin to be added to the low-corn-content feed in order to achieve a desired color fan value of 10 to 15 were calculated (Table 3). For example, in order to achieve a color fan value of 13, astaxanthin may be added to the low-corn-content feed so as to result in a final concentration of 2.2 ppm. Meanwhile, t-capsanthin needs to be added so as to result in a final concentration of 4.3 ppm.

chickens [4] = assay: Yolk color measurement using colorimeter 1 (eggs of Example 5); assay type: in vivo; details: coloring agent 8 ppm or less; corn content 30% to 50%
Description: The yolk color was measured using a colorimeter (CM-700d, Konica Minolta Inc.) for eggs obtained in Example 5 and eggs obtained by using formula feeds listed in Table 5, which had been prepared by adding astaxanthin or t-capsanthin to a feed with a corn content of 40% so as to result in a final concentration of 2 ppm. FIGS. 9a to 9c show the measurement results of the L*, a*, and b* values, respectively.

Julia Light hens [5] = assay: Yolk carotenoid concentration by HPLC, eggs of Example 1; assay type: in vivo, chickens; details: colorant added at 1 to 8 ppm
Description: Eggs were collected from each test plot. The color fan values of 10 chicken eggs were measured using Egg Multitester EMT-7300 (JA Z-Tamago Co., Ltd.) for each test plot. The yolk carotenoid concentration was determined for 3 eggs for each test plot.
Carotenoid quantities in the yolk and each feed were determined via high performance liquid chromatography (HPLC) as described below.
Two columns (Inertsil SIL-100A, 5 μm (ϕ 4.6×250 mm), GL Sciences) were connected in series for use. Elution was carried out with the introduction of an n-hexane/tetrahydrofuran/methanol liquid mixture (40:20:1) as a mobile phase at a constant temperature (around room temperature) and a flow rate of 1.0 mL per minute. Upon determination, samples were each dissolved in tetrahydrofuran and appropriately diluted with the mobile phase such that injection volume was adjusted to 20 μL. The detection for column eluate was carried out at a wavelength of 470 nm.
The yolk carotenoid concentration of eggs obtained in Example 1 was determined by the method described in Example 1 for three eggs for each test plot.
The standard-corn-content feed and the low-corn-content feed were compared in terms of the colorant concentration in the yolk when the coloring agents used in Example 1 were added to each feed at concentrations of 1 to 8 ppm.

chickens [6] = assay: Yolk carotenoid content and composition 3 (eggs of Example 8); assay type: in vivo; details: 2 ppm or 4 ppm; corn contents of 0% to 30%; fed 2 to 4 weeks
Description: The yolk carotenoid concentration in eggs obtained in Example 8 was determined for five eggs for each test plot in the same manner as in Example 1.

chickens [7] = assay: Chicken egg color enhancement test 3: yolk color fan value, feeds with corn contents of 0% to 30%; assay type: in vivo; details: coloring agent 2 ppm or 4 ppm
Description: The effects of the present invention were confirmed using feeds with corn contents of 0% to 30% in the same manner as in Example 1.
Formula feeds were prepared by adding astaxanthin or t-capsanthin to feeds with the compositions listed in Table 7 so as to result in a final concentration of 2 ppm or 4 ppm. In this Example, the feeds were the same except the corn content and the content of brown rice, which is added depending on a decrease in the corn content, and corn-derived corn gluten meal was not mixed therein.

[8] = cited from earlier work
chickens [9] = assay: Yolk carotenoid content and composition 2 (eggs of Examples 5 and 6); details: corn contents of 30% to 50%; 1 to 16 ppm; fed 2 to 4 weeks
[10] = cited from earlier work; remark: listed apart in the source
[11] = desired CF value 10, 30% Corn feed
[12] = desired CF value 10, 50% Corn feed
[13] = desired CF value 11, 30% Corn feed
[14] = desired CF value 11, 50% Corn feed
[15] = desired CF value 12, 30% Corn feed
[16] = desired CF value 12, 50% Corn feed
[17] = desired CF value 13, 30% Corn feed
[18] = desired CF value 13, 50% Corn feed
[19] = desired CF value 14, 30% Corn feed
[20] = desired CF value 14, 50% Corn feed
[21] = desired CF value 15, 30% Corn feed
[22] = desired CF value 15, 50% Corn feed
[23] = desired CF value 10, low-corn-content feed
[24] = desired CF value 11, low-corn-content feed
[25] = desired CF value 12, low-corn-content feed
[26] = desired CF value 13, low-corn-content feed
[27] = desired CF value 14, low-corn-content feed

Compound: CC1=C(/C=C/C(C)=C/C=C/C(C)=C/C=C/C=C(C)/C=C/C=C(C)/C=C/C(=O)[C@]2(C)C[C@@H](O)CC2(C)C)C(C)(C)C[C@H](O)C1 (relative stereo) [t-Capsanthin, trans-capsanthin, reference compound]
Colorant concentration in feed to achieve desired CF value (chickens [1]; [11]): 2.1 ppm
Colorant concentration in feed to achieve desired CF value (chickens [1]; [12]): 2.4 ppm
Colorant concentration in feed to achieve desired CF value (chickens [1]; [13]): 2.8 ppm
Colorant concentration in feed to achieve desired CF value (chickens [1]; [14]): 3.1 ppm
Colorant concentration in feed to achieve desired CF value (chickens [1]; [15]): 3.6 ppm
Colorant concentration in feed to achieve desired CF value (chickens [1]; [16]): 4.0 ppm
Colorant concentration in feed to achieve desired CF value (chickens [1]; [17]): 4.7 ppm
Colorant concentration in feed to achieve desired CF value (chickens [1]; [18]): 5.2 ppm
Colorant concentration in feed to achieve desired CF value (chickens [1]; [19]): 6.4 ppm
Colorant concentration in feed to achieve desired CF value (chickens [1]; [20]): 6.8 ppm
Colorant concentration in feed to achieve desired CF value (chickens [1]; [21]): 9.8 ppm
Colorant concentration in feed to achieve desired CF value (chickens [1]; [22]): 9.7 ppm
a* value (red color) of yolk in relation to corn content (chickens [2]): increased in proportional to the corn content
change of color fan value, low-corn-content vs standard-corn-content feed (Julia Light hens [3]): did not increase
CF value (Julia Light hens [3]; low-corn-content feed): 12.2
CF value (Julia Light hens [3]; standard-corn-content feed): 12.7
Colorant concentration in feed necessary for achieving the desired CF value (Julia Light hens [3]; [23]): 1.8 ppm
Colorant concentration in feed necessary for achieving the desired CF value (Julia Light hens [3]; [24]): 2.4 ppm
Colorant concentration in feed necessary for achieving the desired CF value (Julia Light hens [3]; [25]): 3.2 ppm
Colorant concentration in feed necessary for achieving the desired CF value (Julia Light hens [3]; [26]): 4.3 ppm
Colorant concentration in feed necessary for achieving the desired CF value (Julia Light hens [3]; [27]): 6.0 ppm

concentration transferred to the yolk compared with t-capsanthin (chickens [6]): greater than that of t-capsanthin
Compound: CC1=C(/C=C/C(C)=C/C=C/C(C)=C/C=C/C=C(C)/C=C/C=C(C)/C=C/C2=C(C)C(=O)[C@@H](O)CC2(C)C)C(C)(C)C[C@H](O)C1=O [Astaxanthin, astaxanthin]
a* value (red color) of yolk compared with t-capsanthin (chickens [4]): greater than that obtained with the addition of t-capsanthin
color fan value compared with t-capsanthin (chickens [1]; coloring agent 1 to 8 ppm): greater than those obtained using t-capsanthin
color fan value compared with t-capsanthin (chickens [1]; coloring agent 16 ppm): no significant difference
Astaxanthin/t-Capsanthin ratio (chickens [1]; [11]): 62%
Colorant concentration in feed to achieve desired CF value (chickens [1]; [11]): 1.3 ppm
Astaxanthin/t-Capsanthin ratio (chickens [1]; [12]): 58%
Colorant concentration in feed to achieve desired CF value (chickens [1]; [12]): 1.4 ppm
Astaxanthin/t-Capsanthin ratio (chickens [1]; [13]): 61%
Colorant concentration in feed to achieve desired CF value (chickens [1]; [13]): 1.7 ppm
Astaxanthin/t-Capsanthin ratio (chickens [1]; [14]): 61%
Colorant concentration in feed to achieve desired CF value (chickens [1]; [14]): 1.9 ppm
Astaxanthin/t-Capsanthin ratio (chickens [1]; [15]): 61%
Colorant concentration in feed to achieve desired CF value (chickens [1]; [15]): 2.2 ppm
Astaxanthin/t-Capsanthin ratio (chickens [1]; [16]): 63%
Colorant concentration in feed to achieve desired CF value (chickens [1]; [16]): 2.5 ppm
Astaxanthin/t-Capsanthin ratio (chickens [1]; [17]): 64%
Colorant concentration in feed to achieve desired CF value (chickens [1]; [17]): 3.0 ppm
Astaxanthin/t-Capsanthin ratio (chickens [1]; [18]): 65%
Colorant concentration in feed to achieve desired CF value (chickens [1]; [18]): 3.4 ppm
Astaxanthin/t-Capsanthin ratio (chickens [1]; [19]): 63%
Colorant concentration in feed to achieve desired CF value (chickens [1]; [19]): 4.0 ppm
Astaxanthin/t-Capsanthin ratio (chickens [1]; [20]): 69%
Colorant concentration in feed to achieve desired CF value (chickens [1]; [20]): 4.7 ppm
Astaxanthin/t-Capsanthin ratio (chickens [1]; [21]): 64%
Colorant concentration in feed to achieve desired CF value (chickens [1]; [21]): 6.3 ppm
Astaxanthin/t-Capsanthin ratio (chickens [1]; [22]): 82%
Colorant concentration in feed to achieve desired CF value (chickens [1]; [22]): 8.0 ppm
yolk colorant concentration, low-corn-content vs standard-corn-content feed (Julia Light hens [5]): greater than that in eggs obtained from chickens fed with the standard-corn-content feed
color fan value compared with t-capsanthin (chickens [7]): greater than that achieved by using t-capsanthin
lipid peroxidation inhibition activity, stronger compared with vitamin E [8]: about 1000 fold
amount of colorant accumulated in the yolk in relation to corn content (chickens [9]): tended to increase as the corn content decreased
a* value (red color) of yolk in relation to corn content (chickens [2]): did not cause the a* value to significantly vary
amount of astaxanthin relative to t-capsanthin to achieve the desired color fan value (Julia Light hens [3]; color fan value of 13, low-corn-content feed): approximately 51%
change of color fan value, low-corn-content vs standard-corn-content feed (Julia Light hens [3]): increased
CF value (Julia Light hens [3]; standard-corn-content feed): 12.8
Astaxanthin/t-Capsanthin ratio (Julia Light hens [3]; [23]): 0.56
Colorant concentration in feed necessary for achieving the desired CF value (Julia Light hens [3]; [23]): 1.0 ppm
Astaxanthin/t-Capsanthin ratio (Julia Light hens [3]; [24]): 0.54
Colorant concentration in feed necessary for achieving the desired CF value (Julia Light hens [3]; [24]): 1.3 ppm
Astaxanthin/t-Capsanthin ratio (Julia Light hens [3]; [25]): 0.53
Colorant concentration in feed necessary for achieving the desired CF value (Julia Light hens [3]; [25]): 1.7 ppm
Astaxanthin/t-Capsanthin ratio (Julia Light hens [3]; [26]): 0.51
Colorant concentration in feed necessary for achieving the desired CF value (Julia Light hens [3]; [26]): 2.2 ppm
Astaxanthin/t-Capsanthin ratio (Julia Light hens [3]; [27]): 0.53
Colorant concentration in feed necessary for achieving the desired CF value (Julia Light hens [3]; [27]): 3.2 ppm
Colorant concentration in feed necessary for achieving the desired CF value (Julia Light hens [3]; desired CF value 15, low-corn-content feed): 7.0 ppm
singlet oxygen quenching activity, stronger compared with vitamin E [10]: about 500 fold
